Results from paper PMC12035931, “Biologically active withanolides from Physalis peruviana” (Pharmaceutical Biology, 2025).
Where a name gives a salt, the structure may show the parent alone. Read-outs that look alike come from different tables or passages of the source.

Key:
[1] = test system: NO production in LPS-activated murine macrophage RAW 264.7 cells; assay: cells; type: cell-based, mouse; conditions: for inhibition at 50 µM / IC50: Mus musculus; for inhibition at 50 µM: read-out: Nitrite assay % inhib.; for NO inhibitory activity: compared with positive control L-NMMA / within the series
Method: The inhibition of nitric oxide (NO) production in lipopolysaccharide (LPS)-stimulated murine macrophage RAW 264.7 cells was evaluated following previously described methods (Min et al. [2009]). RAW 264.7 cell line was purchased from ATCC (Cat. No. TIB-71, Manassas, VA, USA) and cultured in Dulbecco’s modified Eagle’s medium (DMEM, Cat. No. 12800-082, Invitrogen, Massachusetts, USA) supplemented with 10% heat-inactivated fetal bovine serum (FBS, Cat. No. 26140, Gibco BRL Co, Grand Island, NY, USA), 100× penicillin G and streptomycin (Cat. No.11074440001, Sigma-Aldrich, Saint Louis, MO, USA) and 2 mM L-glutamine (Cat. No. 25030, Gibco BRL Co, Grand Island, NY, USA). Cells were seeded at 10 × 10^5 cells per well in 96-well plates and incubated for 24 h at 37 °C in a humidified atmosphere containing 5% CO2.
(§1) Test compounds were dissolved in phenol red-free DMEM (Cat. No. 12-917 F, Lonza, Massachusetts, USA) and added to the cells as a pretreatment for 30 min. The cells were then exposed to LPS (1 µg/mL, Cat. No. L-2762, Sigma-Aldrich, Saint Louis, MO, USA) for 20 h. Nitric oxide levels were quantified using the Griess reagent, which consists of a 1:1 (v/v) mixture of 1% sulfanilamide (Cat.No. A13001, Alfa Aesar, Massachusetts, USA) in H3PO4 and N-(1-naphthyl)ethylenediamine dihydrochloride (Cat. No. 102397, MP Biomedicals, USA). A standard curve was generated using sodium nitrite (Cat. No. 44227, Alfa Aesar, Massachusetts, USA), and IC50 values were calculated using Table Curve 2D software (Version 4.07, AISN Software Inc., Richmond, VA, USA). Also, a sulforhodamine B (SRB, Cat. No. S9012, Sigma-Aldrich, Saint Louis, MO, USA) assay was performed to assess the cytotoxic effects of the test compounds on RAW 264.7 cells.

[2] = test system: human embryonic kidney 293 cells (HEK293); assay: Cell survival in the NF-κB assay; type: cell-based
[3] = test system: RAW 264.7 cells; assay: SRB cytotoxicity / survival of RAW 264.7 cells in the nitrite assay; type: cell-based, mouse; conditions: for Nitrite assay % surv.: % survival at a concentration of 50 μM, RAW 264.7; for cytotoxicity in NO assay: RAW 264.7 cells
Method: as §1

[4] = test system: TNF-α-induced NF-κB activity; assay: Inhibition of TNF-α-activated NF-κB, luciferase reporter assay in HEK293 cells; type: cell-based, human; conditions: for inhibition at 50 µM: read-out: NF-κB assay % inhib.
From the text: To study the inhibition of tumor necrosis factor-alpha (TNF-α)-induced activation of nuclear factor-kappa B (NF-κB), human embryonic kidney 293 cells (HEK293) stably transfected with an NF-κB-responsive luciferase reporter construct (Cat. No. RC0014, Panomics, Fremont, CA, USA) were utilized, following previously described protocols (Kondratyuk et al. [2012]). This cell line incorporates a chromosomally integrated luciferase reporter, which produces luciferase enzyme upon NF-κB activation. The enzyme reacts with its substrate to produce a luminescent signal, detectable via luminometry. Cells were seeded at a density of 2 × 10^4 cells/mL in 96-well plates and cultured in Dulbecco’s Modified Eagle Medium (DMEM, Cat. No. D6429, Sigma-Aldrich, Saint Louis, MO, USA) supplemented with 10% fetal bovine serum (FBS, Cat. No. A5670701, Gibco™, Thermo Fisher Scientific, Waltham, MA, USA). The medium also contained 100 µg/mL streptomycin sulfate and 100 IU/mL penicillin G (Cat. No.15140 Gibco BRL, Grand Island, NY, USA). The cells were then treated with varying concentrations of the test sample and stimulated with recombinant human TNF-α (2 ng/mL, Cat. No. HZ-1014, Proteintech Group, Inc. Rosemont, IL, USA).
Following a 6-hour incubation, the cells were rinsed with phosphate buffer saline (PBS), lysed with 40 μL of 1X Reporter Lysis Buffer (Cat. No. E2661, Promega, Madison, WI, USA), and subjected to a freeze-thaw cycle (−80 °C/37 °C). Luminescence, generated by the luciferase reaction, was quantified using the Luc assay system (Cat. No. N1610, Promega, Madison, WI, USA) and a LUMIstar Galaxy luminometer (BMG, Offenburg, Germany).

[5] = test system: NO-production in LPS-stimulated RAW 264.7 cells; set-up: method as in Choudhari et al. [2013]; Park et al. [2019]; conditions: ref Choudhari et al. [2013], Park et al. [2019], read-out: NO-production IC50 (literature); cited from earlier work
[6] = SRB cytotoxicity / survival of RAW 264.7 cells in the nitrite assay; type: cell-based, mouse; conditions: mouse; cytotoxicity in RAW 264.7 cells, NO assay; read-out: cytotoxic IC50
Method: as §1

[7] = RAW264.7, read-out: Nitrite assay IC50
[8] = Homo sapiens, HEK293, % inhibition at a concentration of 50 μM, TNF-α 2 ng/mL, 6 h
[9] = Homo sapiens, TNF-α-induced NF-κB luciferase, HEK293, read-out: NF-κB assay IC50
[10] = RAW264.7, % inhibition of NO at 50 μM, LPS 1 µg/mL, 20 h
[11] = RAW264.7, LPS-activated RAW 264.7 cells, read-out: Nitrite assay IC50
[12] = % survival at a concentration of 50 μM
[13] = Homo sapiens, HEK293, read-out: NF-κB assay IC50
[14] = acetate versus parent, from IC50

Row | SMILES | inhibition at 50 µM ([1]; RAW264.7, 20 h) [%] | IC50 [1, 7] [nM] | NF-κB assay % surv. ([2]; human, 6 h, 50 µM) [%] | Nitrite assay % surv. [3] [%] | cytotoxicity in NO assay [3] | inhibition at 50 µM [4, 8] [%] | IC50 [4, 9] [nM] | further results
1 | CC1=C(C)C(=O)OC(C(C)(O)C2(O)CCC3(O)C4CC(O)C5(O)C(O)C(O)CC(=O)C5(C)C4CCC32C)C1 [Compound 1, (20S,22R)-3α,4β,5α,6β,14α,17β,20β-heptahydroxy-1-oxowitha-24-ene-26,22-olide] | 82.4 ± 1.1 | 13300 ± 200 | 100 ± 24.5 | 100 ± 1.1 | without significant cytotoxicity | 93.4 ± 1.2 | 10 ± 10 | –
2 | CC1=C(C)C(=O)OC(C(C)(O)C2(O)CCC3(O)C4CC(Cl)C5(O)C(O)C=CC(=O)C5(C)C4CCC32C)C1 [Compound 2, (20S,22R)-4β,5β,14α,17β,20α-pentahydroxy-6α-chloro-1-oxowitha-2,24-diene-22,26-olide] | 99.4 ± 0.1 | 3300 ± 300 | 100.0 ± 14.4 | 96.1 ± 3.2 | without significant cytotoxicity | 97.4 ± 1.1 | 60 ± 20 | –
3 | CC(=O)OC1C=CC(=O)C2(C)C3CCC4(C)C(O)(CCC4(O)C(C)(O)C4CC(C)=C(C)C(=O)O4)C3CC(Cl)C12O (stereo not shown) [Compound 2a] | 99.2 ± 2.6 | 8700 ± 600 | 12.3 ± 7.58 | 93.2 ± 2.3 | without significant cytotoxicity | 92.2 ± 0.6 | 1100 ± 420 | –
4 | CC1=C(C)C(=O)OC([C@](C)(O)[C@]2(O)CC[C@@]3(O)C4C[C@H]5O[C@]56[C@@H](O)C=CC(=O)[C@]6(C)C4CC[C@]23C)C1 (stereo partly drawn) [Compound 3, 4β-hydroxywithanolide E] | 99.2 ± 0.4 | 320 ± 20 | 88.6 ± 10.1 | 50.1 ± 2.3 | – | 99.5 ± 0.1 | 40 ± 30 | IC50 [5]: 900 nM; IC50 at 20 h [6]: 14 µM
5 | CC(=O)O[C@H]1C=CC(=O)[C@]2(C)C3CC[C@]4(C)[C@](O)([C@@](C)(O)C5CC(C)=C(C)C(=O)O5)CC[C@@]4(O)C3C[C@H]3O[C@]132 (stereo partly shown) [Compound 3a] | 99.2 ± 0.4 | 240 ± 10 | 2.2 ± 2.6 | 38.9 ± 2.3 | – | 99.9 ± 0.9 | 470 ± 610 | NO inhibitory activity [1]: most active; IC50 at 20 h [6]: 2.1 µM
6 | CO[C@H]1CC(=O)[C@]2(C)C3CC[C@@]4(C)C(=C3C[C@H]3O[C@]32[C@H]1O)CC[C@@]4(O)[C@@](C)(O)C1CC(C)=C(C)C(=O)O1 (stereo partly shown) [Compound 4, physalactone] | – | – | – | 90.7 ± 5.0 | without significant cytotoxicity | – | – | inhibition at 50 µM [1, 10]: 97.9 ± 2%; IC50 [1, 11]: 1800 ± 170 nM; NF-κB assay % surv. [2, 12]: 100.0 ± 16.6%; inhibition at 50 µM ([4]; Homo sapiens, HEK293, 6 h): 66.7 ± 3.9%; IC50 [4, 13]: 11000 ± 2300 nM
7 | CO[C@H]1CC(=O)[C@]2(C)C3CC[C@@]4(C)C(=C3C[C@H]3O[C@]32[C@H]1OC(C)=O)CC[C@@]4(O)[C@@](C)(O)C1CC(C)=C(C)C(=O)O1 (stereo partly shown) [Compound 4a] | – | – | – | 40.3 ± 4.1 | – | – | – | inhibition at 50 µM [1, 10]: 99.8 ± 0.3%; IC50 [1, 11]: 240 ± 10 nM; NO inhibitory activity [1]: most active; NF-κB assay % surv. [2, 12]: 77.7 ± 5.3%; inhibition at 50 µM ([4]; Homo sapiens, HEK293, 6 h): 88 ± 1.3%; IC50 [4, 13]: 330 ± 100 nM; NF-κB activity enhanced relative to parent compound [4, 14]: over 30 fold
8 | CC1=C(C)C(=O)OC([C@](C)(O)[C@]2(O)CC[C@@]3(O)C4C[C@@H](O)C5=CC=CC(=O)[C@]5(C)C4CC[C@]23C)C1 (stereo partly shown) [Compound 5, withaperuvin C] | 99.2 ± 0.7 | 2400 ± 200 | 100.0 ± 8.0 | 79.3 ± 1.2 | without significant cytotoxicity | 85 ± 4.4 | 5600 ± 2100 | –
9 | CC(=O)O[C@@H]1CC2C(CC[C@]3(C)[C@](O)([C@@](C)(O)C4CC(C)=C(C)C(=O)O4)CC[C@@]23O)[C@@]2(C)C(=O)C=CC=C12 (stereo partly shown) [Compound 5a, withaperuvin C acetate] | 99 ± 0.3 | 1800 ± 100 | 47.0 ± 6.0 | 98.8 ± 1.4 | without significant cytotoxicity | 78.3 ± 3 | 2400 ± 1700 | –
10 | CC(=O)OC1C[C@H](O)CC2=CCC3C4CCC([C@@](C)(O)[C@H](O)C[C@@H]5COC(=O)[C@@]5(C)O)[C@@]4(C)CCC3[C@]21C (stereo partly shown) [Compound 6, perulactone C] | 84.2 ± 3.7 | 11800 ± 300 | 36.5 ± 1.9 | 95.3 ± 11.0 | without significant cytotoxicity | 56.1 ± 3.9 | 1100 ± 480 | –
11 | CC(=O)OC1C[C@H](OC(C)=O)CC2=CCC3C4CCC([C@@](C)(O)[C@@H](C[C@@H]5COC(=O)[C@@]5(C)O)OC(C)=O)[C@@]4(C)CCC3[C@]21C (stereo partly shown) [Compound 6a] | 20.6 ± 3 | – | 21.8 ± 0.8 | 92.0 ± 5.0 | – | 77.4 ± 7.3 | 10500 ± 2550 | NF-κB activity diminished relative to parent compound [4, 14]: about 10 fold
12 | CC1=C(CO)CC(C(C)(O)C2(O)CCC3(O)C4CC(O)C5(O)CC=CC(=O)C5(C)C4CCC32C)OC1=O (stereo not shown) [Compound 7, phyperunolide B] | 7.4 ± 3.5 | – | 81.6 ± 8.4 | 100.0 ± 14.1 | – | 41 ± 6.9 | – | –
13 | CC1=C(C)C(=O)OC(C(C)(O)C2(O)CC(O)C3(O)C4CC(O)C5(O)CC=CC(=O)C5(C)C4CCC32C)C1 (stereo not shown) [Compound 8, coagulin H] | 67.1 ± 2.2 | 16700 ± 400 | 82.2 ± 3.9 | 100.0 ± 6.3 | – | 70.2 ± 8.1 | 8900 ± 1100 | –
14 | [H]/N=C(/NC)NCCC[C@H](N)C(=O)O [L-NMMA, L-N^G-Monomethyl arginine citrate, reference compound] | – | – | – | – | – | – | – | IC50 [1, 11]: 23500 ± 3400 nM
15 | Cc1ccc(S(=O)(=O)N[C@@H](Cc2ccccc2)C(=O)CCl)cc1 [TPCK, Nα-tosyl-L-phenylalanine chloromethyl ketone, reference compound] | – | – | – | – | – | – | – | IC50 ([4]; TNF-α-induced NF-κB luciferase, HEK293, read-out: NF-κB assay IC50): 7080 ± 1720 nM
